Data: patent US8663646B2, “P53 peptide vaccine” (priority 2007, dated 2014)
Like-named read-outs stand apart in the source and are kept apart here. Where no end group is shown, it is not given here.

Experiments:
HLA-A*0101 [1] = biological target: T1, HLA-A*0101 (Homo sapiens, UniProt P04439, A114D/A174V/A182V/D101N/D185E/E176A/E190D/L180R/Q94H/R68K/S129P/T187R/V100A/V91M/W191G); experiment: Stability of peptide-HLA complex, binding at 4° C. and 20° C., HLA-A*0101; conditions: for HLA binding Stability (Table 5): HLA type A1; for Peptide Binding Stability: HLA-A*0101, IC50 at 20° C. vs 4° C.
T1 construct: B-cell lines used are: CAA (A*0101), EKR (A*0301), BVR (A*1101), VIJF (A*2401); endogenous in cells; host or cells: B-cell line CAA

HLA-A*0101 [2] = biological target: T1, HLA-A*0101; experiment: Competition based cellular binding assay, HLA-A*0101 (B-cell line CAA)
proteasome = experiment: Proteasome processing, summarised over proteasome types (Table 5); type: biochemical; conditions: 30 residue long precursor peptides
Method: (§1) In the context of the invention, “being inefficiently processed by a proteasome” preferably means that within the first hour of digestion by a proteasome less than 1% of total digested peptide is found. The processing by a proteasome is preferably assessed by incubating a purified proteasome, more preferably a human proteasome with a peptide comprising the potential CTL epitope (30 amino acid length approximately) in a proteasome digestion buffer during at least one hour at 37° C. The reaction is subsequently stopped by adding trifluoroacetic acid. Analysis of the digested peptides is performed with electrospray ionization mass spectrometry (see example 1). Even more preferably, the human proteasome is an immunoproteasome from B-LCL JY cells (Kessler J H et al. 2001).
(§2) 20S immuno-proteasomes were purified from a mouse B-cell line (RMA) and a human B-LCL cell line (JY) and 20S household proteasomes were purified from human tumor cell line (HeLa) as described (Kessler J H et al 2001). To assess kinetics, digestions were performed with different incubation periods as indicated. Briefly, peptides containing the (potential) CTL epitopes (30 mers, 20 μg) were incubated with 1 μg of purified proteasome at 37° C. for 1 h, 4 h and 24 h in 300 μl proteasome digestion buffer, trifluoroacetic acid (30 μl) was added to stop the digestion and samples were stored at −20° C. before mass spectrometric analysis. Electrospray ionization mass spectrometry was performed on a hybrid quadrupole time-of-flight mass spectromter, a Q-TOF (Micromass), equipped with an on-line nanoelectrospray interface with an approximate flow rate of […] as described (Kessler J H et al 2001). The peaks in the mass spectrum were searched in the digested precursor peptide using the Biolynx/proteins software (Micromass) supplied with the mass spectrometer. The intensity of the peaks in the mass spectra was used to establish the relative amounts of peptides generated after proteasome digestion. The relative amounts of the peptides are given as a percentage of the total amount of peptide digested by the proteasome at the indicated incubation time. Major cleavage sites are defined as more than >1% of total digested peptide within the first hour.

[3] = biological target: T2, 20S immuno-proteasomes from human B-LCL cell line (JY) (Homo sapiens, UniProt P28062+P28065+P40306); conditions: PRAME peptides (Kessler J H et al 2001); cited from earlier work
T2 construct: purified from a mouse B-cell line (RMA) and a human B-LCL cell line (JY); endogenous in cells; host or cells: B-LCL JY cells; 20S proteasome purified from them

HLA-A*0201 [4] = biological target: T3, HLA-A*0201 (Homo sapiens, UniProt P04439, D140Y/D185E/D98H/E176V/E277Q/G131W/G231S/I119V/I121R/I166T/I218V/L300P/L318F/N151K/N90K/P208A/P217A/Q86G/Q94H/R138H/R169H/T345S); conditions: binding capacity previously determined, read-out: Peptide Binding Affinity; cited from earlier work
[5] = biological target: T2, 20S immuno-proteasomes from human B-LCL cell line (JY); experiment: In vitro proteasome mediated digestion of 30-mers, mass spectrometry, immunoproteasome JY; type: biochemical; conditions: 30 residue long precursor peptides
Procedure, shortened: (§3)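 30-mer peptides (20 μg) digested with 1 μg purified 20S proteasome (JY or RMA immunoproteasome, HeLa household proteasome) at 37° C for 1, 4 and 24 h, stopped with TFA. Nano-ESI Q-TOF MS; fragments quantified by peak intensity as percent of total digested peptide per time point; major cleavage site >1% within first hour.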

[6] = biological target: T4, 20S household proteasomes from human tumor cell line (HeLa) (Homo sapiens, UniProt P28072+P28074+Q99436); experiment: In vitro proteasome mediated digestion of 30-mers, mass spectrometry, household proteasome HeLa; type: biochemical; conditions: 30 residue long precursor peptides
T4 construct: 20S household proteasomes were purified from human tumor cell line (HeLa); endogenous in cells; host or cells: HeLa cells; 20S proteasome purified from them
Method: as §1, §2

[7] = biological target: T5, 20S immuno-proteasomes from mouse B-cell line (RMA) (Mus musculus, UniProt O35955+P28063+P28076); experiment: In vitro proteasome mediated digestion of 30-mers, mass spectrometry, immunoproteasome RMA; type: biochemical; conditions: 30 residue long precursor peptides
T5 construct: 20S immuno-proteasomes were purified from a mouse B-cell line (RMA); endogenous in cells; host or cells: RMA cells; 20S proteasome purified from them
Procedure, shortened: as §3

HLA-A*2401 [8] = experiment: Stability of peptide-HLA complex, binding at 4° C. and 20° C., HLA-A*2401; set-up: species or system human; conditions: HLA-A*2401; IC50 at 20° C. vs 4° C.
Method: Stability of other peptide-HLA complexes was preferably determined as follows. […] Peptides of >50% of the initial complexes was lost within 2 hours were considered unstable. […] The rest was designated as unstable peptide binding.
Peptides 8-11 residues in length were selected based on typical anchor residues for HLA-A*0101, A*0301, A*1101 and HLA-A*2401 (Rammensee H G et al). The capacity of peptides to bind was tested in a competition based cellular binding assay as previously described (van der Burg S H et al 1995). FL-labeled reference peptides were synthesized as Cys-derivative (van der Burg S H et al 1995). Fluorescence labeled reference peptides used were: YLEPAC(FL)AK (SEQ ID NO: 87) (HLA-A*0101) and KVFPC(FL)ALINK (SEQ ID NO: 88) (HLA-A*1101) (Sette A et al), KVFPC(FL)ALINK (SEQ ID NO: 89) (HLAA*0301) (van der Burg S H et al 1995) and RYLKC(FL)QQLL (SEQ ID NO: 90) (A*2401) (Dai L C et al). B-cell lines used are: CAA (A*0101), EKR (A*0301), BVR (A*1101), VIJF (A*2401). The relative binding capacity of the peptides is expressed as the peptide concentration to inhibit 50% (1050) of the binding of the reference peptide. […] Peptide stabilization for HLA-A*0201 was performed as previously described (van der Burg S H et al, 1996). Peptides of >50% of the initial complexes was lost within 2 hours were considered unstable. Stability of other peptide-HLA complexes was determined as follows. Peptide binding was performed at 4° C. and 20° C. and 1050 were determined. […] The rest was designated as unstable peptide binding.

HLA-A*2401 [9] = experiment: Competition based cellular binding assay, HLA-A*2401 (B-cell line VIJF); set-up: species or system human; conditions: HLA-A*2401, IC50 category
HLA-A*0201 [10] = biological target: T3, HLA-A*0201; experiment: Peptide stabilization for HLA-A*0201; type: binding; conditions: for Peptide Binding Stability: HLA-A*0201, p53 peptides
[11] = HLA-A*0101, IC50 category, read-out: Peptide Binding Affinity

CC[C@H](C)[C@H](NC(=O)[C@@H](NC(=O)[C@@H](NC(=O)[C@@H](N)CS)[C@@H](C)O)[C@@H](C)O)C(=O)N[C@@H](Cc1c[nH]cn1)C(=O)N[C@@H](Cc1ccc(O)cc1)C(=O)N[C@@H](CC(N)=O)C(=O)N[C@@H](Cc1ccc(O)cc1)C(=O)O [p53 229-236]
HLA binding Stability (Table 5) (HLA-A*0101 [1]): − (The rest was designated as unstable peptide binding.)
Peptide Binding Stability (HLA-A*0101 [1]): − (The rest was designated as unstable peptide binding.)
IC50 (HLA-A*0101 [2]; HLA type A1, read-out: HLA binding Affinity (Table 5)): 15 to 50 µM
IC50 (HLA-A*0101 [2]; [11]): 5 to 15 µM

CC(C)C[C@H](NC(=O)[C@@H](N)CC(C)C)C(=O)NCC(=O)N[C@@H](CCCNC(=N)N)C(=O)N[C@@H](CC(N)=O)C(=O)N[C@@H](CO)C(=O)N[C@@H](Cc1ccccc1)C(=O)N[C@@H](CCC(=O)O)C(=O)N[C@H](C(=O)O)C(C)C [p53 264-272]
generation / processing by household and immunoproteasomes, in words (proteasome): not well processed

ALYVDSLFFL [PRA 300-309]
Proteasomal Cleavage of C-terminus, IP (JY) [3]: + (Major cleavage sites are defined as more than >1% of total digested peptide within the first hour)

VLDGLDVLL [PRA 100-108]
Proteasomal Cleavage of C-terminus, IP (JY) [3]: + (Major cleavage sites are defined as more than >1% of total digested peptide within the first hour)

SLLQHLIGL [PRA 425-433]
Proteasomal Cleavage of C-terminus, IP (JY) [3]: + (Major cleavage sites are defined as more than >1% of total digested peptide within the first hour)

SLYSFPEPEA [PRA 142-151]
Proteasomal Cleavage of C-terminus, IP (JY) [3]: + (Major cleavage sites are defined as more than >1% of total digested peptide within the first hour)

CC(C)C[C@H](NC(=O)[C@@H](NC(=O)[C@H](Cc1ccccc1)NC(=O)[C@H](Cc1ccc(O)cc1)NC(=O)[C@H](CCC(=O)O)NC(=O)CNC(=O)[C@H](CC(=O)O)NC(=O)[C@H](CC(C)C)NC(=O)[C@@H]1CCCN1)[C@@H](C)O)C(=O)O [p53 322-330]
IC50 (HLA-A*0201 [4]): 5 to 15 µM
Proteasomal Cleavage of C-terminus, IP (JY) [5]: + (Major cleavage sites are defined as more than >1% of total digested peptide within the first hour)
Proteasomal Cleavage of C-terminus, HH (HeLa) [6]: + (Major cleavage sites are defined as more than >1% of total digested peptide within the first hour)
Proteasomal Cleavage of C-terminus, IP (RMA) [7]: + (Major cleavage sites are defined as more than >1% of total digested peptide within the first hour)

CSCC[C@H](NC(=O)[C@H](CCCCN)NC(=O)[C@H](CC(N)=O)NC(=O)[C@H](CC(C)C)NC(=O)[C@H](C)NC(=O)[C@@H]1CCCN1C(=O)[C@H](CO)NC(=O)[C@H](Cc1ccc(O)cc1)NC(=O)[C@@H](N)[C@@H](C)O)C(=O)N[C@@H](Cc1ccccc1)C(=O)O [p53 125-134]
generation / processing by household and immunoproteasomes, in words (proteasome): not/inefficiently processed
Peptide Binding Stability (HLA-A*2401 [8]): + (Stable peptides displayed IC50 at 20 °C that deviated <2 times of the IC50 at 4° C.)
Peptide Binding Affinity (HLA-A*2401 [9]): high
IC50 (HLA-A*2401 [9]; read-out: Peptide Binding Affinity): < 5 µM

CC[C@H](C)[C@H](NC(=O)[C@H](CC(C)C)NC(=O)[C@H](Cc1c[nH]cn1)NC(=O)[C@H](CCC(N)=O)NC(=O)[C@@H]1CCCN1C(=O)[C@@H]1CCCN1C(=O)[C@H](C)NC(=O)[C@H](CC(C)C)NC(=O)CN)C(=O)N[C@@H](CCCNC(=N)N)C(=O)N[C@H](C(=O)O)C(C)C [p53 187-197]
generation / processing by household and immunoproteasomes, in words (proteasome): efficiently generated
Proteasomal Cleavage of C-terminus, IP (JY) [5]: + (Major cleavage sites are defined as more than >1% of total digested peptide within the first hour)
capacity to form stable peptide-HLA-A*0201 complexes, in words (HLA-A*0201 [10]): forms stable peptide-HLA complexes
Peptide Binding Stability (HLA-A*0201 [10]): 6 h
Proteasomal Cleavage of C-terminus, HH (HeLa) [6]: + (Major cleavage sites are defined as more than >1% of total digested peptide within the first hour)
Proteasomal Cleavage of C-terminus, IP (RMA) [7]: + (Major cleavage sites are defined as more than >1% of total digested peptide within the first hour)

YLDDRNTFRH [p53 205-214]
HLA binding Stability (Table 5) (HLA-A*0101 [1]): + (Stable peptides displayed IC50 at 20 °C that deviated <2 times of the IC50 at 4° C.)
Peptide Binding Stability (HLA-A*0101 [1]): + (Stable peptides displayed IC50 at 20 °C that deviated <2 times of the IC50 at 4° C.)
HLA binding Affinity (Table 5) (HLA-A*0101 [2]; HLA type A1): int
IC50 (HLA-A*0101 [2]; [11]): 5 to 15 µM

CC(C)[C@H](NC(=O)[C@H](CCCNC(=N)N)NC(=O)[C@@H](NC(=O)CNC(=O)[C@@H]1CCCN1C(=O)[C@@H]1CCCN1C(=O)[C@@H]1CCCN1C(=O)[C@@H](NC(=O)[C@@H](N)CO)[C@@H](C)O)[C@@H](C)O)C(=O)O [p53 149-157]
generation / processing by household and immunoproteasomes, in words (proteasome): efficiently generated
Proteasomal Cleavage of C-terminus, IP (JY) [5]: + (Major cleavage sites are defined as more than >1% of total digested peptide within the first hour)
capacity to form stable peptide-HLA-A*0201 complexes, in words (HLA-A*0201 [10]): weak
HLA binding Stability (Table 5) (HLA-A*0201 [10]; HLA type A2, class symbol): − (Peptides of >50% of the initial complexes was lost within 2 hours were considered unstable)
Peptide Binding Stability (HLA-A*0201 [10]): <2 h
Proteasomal Cleavage of C-terminus, HH (HeLa) [6]: + (Major cleavage sites are defined as more than >1% of total digested peptide within the first hour)
Proteasomal Cleavage of C-terminus, IP (RMA) [7]: + (Major cleavage sites are defined as more than >1% of total digested peptide within the first hour)
